{
  "source": "patent US20080248511A1",
  "about": "“METHODS TO QUENCH LIGHT FROM OPTICAL REACTIONS” (priority 2007, published 2008)",
  "target": "T1, Renilla luciferase (Renilla reniformis, UniProt P27652)",
  "T1 sequence (P27652 1-311)": "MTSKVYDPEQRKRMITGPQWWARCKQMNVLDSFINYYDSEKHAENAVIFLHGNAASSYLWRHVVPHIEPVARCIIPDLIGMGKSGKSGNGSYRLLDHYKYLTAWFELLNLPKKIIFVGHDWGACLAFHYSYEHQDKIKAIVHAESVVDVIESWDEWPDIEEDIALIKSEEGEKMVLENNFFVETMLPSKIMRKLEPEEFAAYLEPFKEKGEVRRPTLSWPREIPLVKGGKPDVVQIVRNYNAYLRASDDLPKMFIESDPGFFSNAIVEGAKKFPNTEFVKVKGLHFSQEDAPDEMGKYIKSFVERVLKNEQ",
  "experiment": "Detergent titration with Tergitol NP-9, digitonin or no lysing agent, Renilla luciferase (Example 4)",
  "type": "biochemical",
  "details": "for remaining activity at 0.0005 % / remaining activity at 0.005 % / remaining activity at 0.05 %: read-out: Relative Renilla Luc Intensity",
  "protocol": "Renilla luciferase-mediated luminescence was measured from samples containing 9.6 mM phosphate buffer pH 6.8, 2.7 mM KCl, 137 mM NaCl (in PBS), 0.1% gelatin, 75 nM coelentrazine (Promega) and 10.2 ng/ml Renilla luciferase. Reactions contained either no lysing agent, 0.5% Tergitol NP-9 or 20 μg/ml digitonin. The detergents to be tested were titrated to 0.05%, 0.005% or 0.0005% in the reactions prior to the addition of the Renilla luciferase. Renilla luciferase-mediated luminescence was measured as described herein.",
  "note": "Like-named read-outs stand apart in the source and are kept apart here.",
  "data": [
    {"smiles": "CCCCCCCCCCCC[N+](C)(C)Cc1ccccc1.[Br-]", "note": "[Benzyldimethyldodecylammonium bromide]", "values": [
      {"measurement": "Selective Inhibition (Ff Luc Inh/Ren Luc Inh)", "setting": "0.0005% detergent, Dig", "value": 1.8},
      {"measurement": "remaining activity at 0.0005 %", "setting": "0.0005% detergent, Dig", "value": 61, "unit": "%"},
      {"measurement": "Selective Inhibition (Ff Luc Inh/Ren Luc Inh)", "setting": "0.0005% detergent, Terg", "value": 1.1},
      {"measurement": "remaining activity at 0.0005 %", "setting": "0.0005% detergent, Terg", "value": 90, "unit": "%"},
      {"measurement": "Selective Inhibition (Ff Luc Inh/Ren Luc Inh)", "setting": "0.0005% detergent, Water", "value": 2.2},
      {"measurement": "remaining activity at 0.0005 %", "setting": "0.0005% detergent, Water", "value": 54, "unit": "%"},
      {"measurement": "Selective Inhibition (Ff Luc Inh/Ren Luc Inh)", "setting": "0.0050% detergent, Dig", "value": 29},
      {"measurement": "remaining activity at 0.005 %", "setting": "0.0050% detergent, Dig", "value": 5, "unit": "%"},
      {"measurement": "Selective Inhibition (Ff Luc Inh/Ren Luc Inh)", "setting": "0.0050% detergent, Terg", "value": 1.7},
      {"measurement": "remaining activity at 0.005 %", "setting": "0.0050% detergent, Terg", "value": 58, "unit": "%"},
      {"measurement": "Selective Inhibition (Ff Luc Inh/Ren Luc Inh)", "setting": "0.0050% detergent, Water", "value": 36},
      {"measurement": "remaining activity at 0.005 %", "setting": "0.0050% detergent, Water", "value": 4, "unit": "%"},
      {"measurement": "remaining activity at 0.05 %", "setting": "0.0500% (w:v) detergent, Terg (0.5% Tergitol NP-9)", "value": 2, "unit": "%"},
      {"measurement": "Selective Inhibition (Ff Luc Inh/Ren Luc Inh)", "setting": "0.0500% detergent, Dig", "value": 1575},
      {"measurement": "remaining activity at 0.05 %", "setting": "0.0500% detergent, Dig (20 μg/ml digitonin)", "value": 0.02, "unit": "%"},
      {"measurement": "Selective Inhibition (Ff Luc Inh/Ren Luc Inh)", "setting": "0.0500% detergent, Terg", "value": 21},
      {"measurement": "Selective Inhibition (Ff Luc Inh/Ren Luc Inh)", "setting": "0.0500% detergent, Water", "value": 3627},
      {"measurement": "remaining activity at 0.05 %", "setting": "0.0500% detergent, Water (no lysing agent)", "value": 0.02, "unit": "%"}
    ]}
  ]
}
